Measured values taken from PubChem BioAssay (NCI).
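Five compound concentrations were applied to cells in 96-well plates for 48 hours; endpoints were derived by simple linear interpolation of the resulting dose-response curve. TGI: concentration producing complete growth inhibition.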

Test system: DMS 273 small cell lung
Assay: NCI tumour cell line growth inhibition, 48 h

Structure (SMILES) | TGI [µM]
C[C@H]1CC[P+](C)(c2ccccc2)C1 (some centres not stated) | > 100
COc1cc(OC)c2c(=O)c3cccc([N+](=O)[O-])c3n(C)c2c1 | > 100
COc1cccc(/C=N\NC(=O)C(C)SC(C)C(=O)N/N=C/c2cccc(OC)c2)c1 (configuration not stated) | 97
Cc1cc(C)nc(NS(=O)(=O)c2ccc(Nc3c4ccccc4nc4c(C(=O)NCCN(C)C)cccc34)cc2)n1 | 11.2
COc1cc2c(c(OC)c1OC)C(=O)NCCC2 | > 100
Cc1nc2ccccc2c(=O)n1/N=C(\N=Nc1cc(Cl)ccc1Cl)c1ccccc1 | > 100
O=C1CCC(=O)N1Sc1ccccc1 | > 100
O=c1[nH]cnc2n[nH]nc12 | > 100
O=C(/C=C/c1ccccc1O)c1ccccc1Cl | > 100
CCCCC1(C(NC(=O)c2ccccc2Cl)c2ccncc2)C(=O)N(c2ccccc2)N(c2ccccc2)C1=O (configuration not stated) | > 100
COc1ccc(/C=N/NS(=O)(=O)c2ccccc2)cc1 | > 100
COc1ccccc1NC(=O)C1=C(C)NC(C)=C(C(=O)Nc2ccccc2OC)C1c1ccco1 | > 100
C1=CC2CCC1CN2CCC1CNc2ccccc21 (configuration not stated) | > 100
Cc1ccc(OC(=O)N2C/C(=C\c3ccccc3)C(=O)/C(=C/c3ccccc3)C2)cc1 | 18.1
O=C1C(=O)C2(CC1S(=O)(=O)c1ccccc1)c1ccccc1-c1ccccc12 (configuration not stated) | 36.2
O=c1oc2c3ccc4ccccc4c3n(CCN3CCCCC3)c2c2ccccc12 | > 100
Cc1ccc(S(=O)C(C)C(Cl)c2ccccc2)cc1 (configuration not stated) | > 100
CN1CCc2ccccc2C(C(=O)c2ccc3c(c2)OCO3)C1=O (configuration not stated) | > 100
Cc1cc(Cl)ccc1NC(=O)C1C(=O)N(c2ccc(Cl)cc2C)C(=O)/C1=N\NC(N)=S (configuration not stated) | > 100
COc1ccccc1C(=O)N(Cc1ccccc1)c1ccc(Cl)c(C(=O)OC(C)C)c1 | 37.5
COc1ccc(Br)c(C(=O)N2CCc3ccccc32)c1N | 99.3
Cc1ccc2ccc(-c3ccccc3)c3c2c1C(=O)c1ccccc1C3=O | > 100
OCC(O)C(O)C(O)c1nn(-c2ccc(F)cc2)c2nc3cc(Cl)c(Cl)cc3nc12 (configuration not stated) | 48.2
NCCCN=c1ccc2c3c1c(O)c1c(O)ccc(=O)c1c3[nH]n2CCNCCO | 0.403
COc1ccc(C2Cc3cc(OC)c(OC)c(OC)c3C2)cc1 (configuration not stated) | > 100

Test system: DLD-1 colon
Assay: NCI tumour cell line growth inhibition, 48 h

Structure (SMILES) | TGI [µM]
CC1(C)OC(=O)C(=C2CCC(C(=O)Nc3cccc(C(F)(F)F)c3)N2)C(=O)O1 (configuration not stated) | > 100
CN(C)CCN1CCc2c([nH]c3ccccc23)C1c1cccnc1 (configuration not stated) | > 100
CCN(c1ccccc1)[C@H]1C(=O)N(c2ccc([N+](=O)[O-])cc2)[C@H]1c1ccc(OC)cc1 | > 100
COc1ccc(/C=C\c2cc(OC)c(OC)c(OC)c2)cc1 | > 100
C[C@H]1CC[P+](C)(c2ccccc2)C1 (some centres not stated) | > 100
COc1cccc(/C=N\NC(=O)C(C)SC(C)C(=O)N/N=C/c2cccc(OC)c2)c1 (configuration not stated) | > 100
Cc1cc(C)nc(NS(=O)(=O)c2ccc(Nc3c4ccccc4nc4c(C(=O)NCCN(C)C)cccc34)cc2)n1 | 21.7
COc1cc2c(c(OC)c1OC)C(=O)NCCC2 | > 100
Cc1nc2ccccc2c(=O)n1/N=C(\N=Nc1cc(Cl)ccc1Cl)c1ccccc1 | > 100
O=C1CCC(=O)N1Sc1ccccc1 | > 100
O=C(/C=C/c1ccccc1O)c1ccccc1Cl | > 100
CCCCC1(C(NC(=O)c2ccccc2Cl)c2ccncc2)C(=O)N(c2ccccc2)N(c2ccccc2)C1=O (configuration not stated) | > 100
COc1ccc(/C=N/NS(=O)(=O)c2ccccc2)cc1 | > 100
COc1ccccc1NC(=O)C1=C(C)NC(C)=C(C(=O)Nc2ccccc2OC)C1c1ccco1 | > 100
C1=CC2CCC1CN2CCC1CNc2ccccc21 (configuration not stated) | > 100
Cc1ccc(OC(=O)N2C/C(=C\c3ccccc3)C(=O)/C(=C/c3ccccc3)C2)cc1 | 28.1
O=C1C(=O)C2(CC1S(=O)(=O)c1ccccc1)c1ccccc1-c1ccccc12 (configuration not stated) | 66.1
O=c1oc2c3ccc4ccccc4c3n(CCN3CCCCC3)c2c2ccccc12 | > 100
Cc1ccc(S(=O)C(C)C(Cl)c2ccccc2)cc1 (configuration not stated) | > 100
CN1CCc2ccccc2C(C(=O)c2ccc3c(c2)OCO3)C1=O (configuration not stated) | > 100
Cc1cc(Cl)ccc1NC(=O)C1C(=O)N(c2ccc(Cl)cc2C)C(=O)/C1=N\NC(N)=S (configuration not stated) | > 100
COc1ccccc1C(=O)N(Cc1ccccc1)c1ccc(Cl)c(C(=O)OC(C)C)c1 | > 100
COc1ccc(Br)c(C(=O)N2CCc3ccccc32)c1N | > 100
Cc1ccc2ccc(-c3ccccc3)c3c2c1C(=O)c1ccccc1C3=O | > 100
OCC(O)C(O)C(O)c1nn(-c2ccc(F)cc2)c2nc3cc(Cl)c(Cl)cc3nc12 (configuration not stated) | > 100
NCCCN=c1ccc2c3c1c(O)c1c(O)ccc(=O)c1c3[nH]n2CCNCCO | 159
COc1ccc(C2Cc3cc(OC)c(OC)c(OC)c3C2)cc1 (configuration not stated) | > 100

Test system: KM20L2 colon
Assay: NCI tumour cell line growth inhibition, 48 h

Structure (SMILES) | TGI [µM]
CC1(C)OC(=O)C(=C2CCC(C(=O)Nc3cccc(C(F)(F)F)c3)N2)C(=O)O1 (configuration not stated) | > 100
CN(C)CCN1CCc2c([nH]c3ccccc23)C1c1cccnc1 (configuration not stated) | > 100
C[C@H]1CC[P+](C)(c2ccccc2)C1 (some centres not stated) | > 100
COc1cc(OC)c2c(=O)c3cccc([N+](=O)[O-])c3n(C)c2c1 | > 100
COc1cccc(/C=N\NC(=O)C(C)SC(C)C(=O)N/N=C/c2cccc(OC)c2)c1 (configuration not stated) | > 100
Cc1cc(C)nc(NS(=O)(=O)c2ccc(Nc3c4ccccc4nc4c(C(=O)NCCN(C)C)cccc34)cc2)n1 | 20.2
COc1cc2c(c(OC)c1OC)C(=O)NCCC2 | > 100
Cc1nc2ccccc2c(=O)n1/N=C(\N=Nc1cc(Cl)ccc1Cl)c1ccccc1 | 4.47
O=C1CCC(=O)N1Sc1ccccc1 | > 100
O=c1[nH]cnc2n[nH]nc12 | > 100
O=C(/C=C/c1ccccc1O)c1ccccc1Cl | > 100
CCCCC1(C(NC(=O)c2ccccc2Cl)c2ccncc2)C(=O)N(c2ccccc2)N(c2ccccc2)C1=O (configuration not stated) | > 100
COc1ccc(/C=N/NS(=O)(=O)c2ccccc2)cc1 | > 100
COc1ccccc1NC(=O)C1=C(C)NC(C)=C(C(=O)Nc2ccccc2OC)C1c1ccco1 | 13
C1=CC2CCC1CN2CCC1CNc2ccccc21 (configuration not stated) | > 100
Cc1ccc(OC(=O)N2C/C(=C\c3ccccc3)C(=O)/C(=C/c3ccccc3)C2)cc1 | > 100
O=C1C(=O)C2(CC1S(=O)(=O)c1ccccc1)c1ccccc1-c1ccccc12 (configuration not stated) | > 100
O=c1oc2c3ccc4ccccc4c3n(CCN3CCCCC3)c2c2ccccc12 | > 100
Cc1ccc(S(=O)C(C)C(Cl)c2ccccc2)cc1 (configuration not stated) | > 100
CN1CCc2ccccc2C(C(=O)c2ccc3c(c2)OCO3)C1=O (configuration not stated) | > 100
